Columns and labels:
Assay type in all cases: in vivo
[1] = test system: Diabrotica balteata; experiment: Example B1: Diabrotica balteata (corn root worm), maize sprouts sprayed, L2 larvae; conditions: 96 h, application rate of 200 ppm, 4 days after infestation, read-out: control in at least one of the two categories (mortality or growth inhibition)
Method: Example B1: Diabrotica balteata (Corn Root Worm)
Maize sprouts placed onto an agar layer in 24-well microtiter plates were treated with aqueous test solutions prepared from 10′000 ppm DMSO stock solutions by spraying. After drying, the plates were infested with L2 larvae (6 to 10 per well). The samples were assessed for mortality and growth inhibition in comparison to untreated samples 4 days after infestation.
The following compounds gave an effect of at least 80% control in at least one of the two categories (mortality or growth inhibition) at an application rate of 200 ppm: […]

[2] = test system: Euschistus heros; experiment: Example B2: Euschistus heros (neotropical brown stink bug), soybean leaves sprayed, N2 nymphs; conditions: 120 h, application rate of 200 ppm, 5 days after infestation, read-out: control in at least one of the two categories (mortality or growth inhibition)
Method: Example B2: Euschistus heros (Neotropical Brown Stink Bug)
Soybean leaves on agar in 24-well microtiter plates were sprayed with aqueous test solutions prepared from 10′000 ppm DMSO stock solutions. After drying the leaves were infested with N2 nymphs. The samples were assessed for mortality and growth inhibition in comparison to untreated samples 5 days after infestation.
The following compounds gave an effect of at least 80% control in at least one of the two categories (mortality or growth inhibition) at an application rate of 200 ppm: F2, F4, F6, F8, F12, F16.

[3] = test system: Chilo suppressalis; experiment: Example B3: Chilo suppressalis (striped rice stem borer), artificial diet, L2 larvae; conditions: 144 h, application rate of 200 ppm, 6 days after infestation, read-out: control in at least one of the three categories (mortality, anti-feedant effect, or growth inhibition)
Method: Example B3: Chilo suppressalis (Striped Rice Stem Borer)
24-well microtiter plates with artificial diet were treated with aqueous test solutions prepared from 10′000 ppm DMSO stock solutions by pipetting. After drying, the plates were infested with L2 larvae (6-8 per well). The samples were assessed for mortality, anti-feeding effect, and growth inhibition in comparison to untreated samples 6 days after infestation. Control of Chilo suppressalis by a test sample is given when at least one of the categories mortality, anti-feedant effect, and growth inhibition is higher than the untreated sample.

[4] = test system: Plutella xylostella; experiment: Example B4: Plutella xylostella (diamond back moth), artificial diet, 24-well, eggs; conditions: 192 h, application rate of 200 ppm, 8 days after infestation, 24-well plates, read-out: control in at least one of the two categories (mortality or growth inhibition)
Method: Example B4: Plutella xylostella (Diamond Back Moth)
24-well microtiter plates with artificial diet were treated with aqueous test solutions prepared from 10′000 ppm DMSO stock solutions by pipetting. After drying, Plutella eggs were pipetted through a plastic stencil onto a gel blotting paper and the plate was closed with it. The samples were assessed for mortality and growth inhibition in comparison to untreated samples 8 days after infestation. The following compounds gave an effect of at least 80% control in at least one of the two categories (mortality or growth inhibition) at an application rate of 200 ppm: […]

[5] = test system: Myzus persicae; experiment: Example B6: Myzus persicae (green peach aphid), intrinsic activity, sucrose solution, 24-well; conditions: 120 h, test rate of 12 ppm, 5 days after infestation
Excerpt: Example B6: Myzus Persicae (Green Peach Aphid): Intrinsic Activity
Test compounds prepared from 10′000 ppm DMSO stock solutions were applied by pipette into 24-well microtiter plates and mixed with sucrose solution. The plates were closed with a stretched Parafilm. A plastic stencil with 24 holes was placed onto the plate and infested pea seedlings were placed directly on the Parafilm. The infested plate was closed with a gel blotting paper and another plastic stencil and then turned upside down. The samples were assessed for mortality 5 days after infestation.

[6] = test system: Spodoptera littoralis; experiment: Example B7: Spodoptera littoralis (Egyptian cotton leaf worm), cotton leaf discs sprayed, L1 larvae; conditions: foliar, 72 h, application rate of 200 ppm, 3 days after infestation, read-out: control in at least one of the three categories (mortality, anti-feedant effect, or growth inhibition)
Method: Example B7: Spodoptera littoralis (Egyptian Cotton Leaf Worm)
Cotton leaf discs were placed onto agar in 24-well microtiter plates and sprayed with aqueous test solutions prepared from 10′000 ppm DMSO stock solutions. After drying the leaf discs were infested with five L1 larvae. The samples were assessed for mortality, anti-feeding effect, and growth inhibition in comparison to untreated samples 3 days after infestation. Control of Spodoptera littoralis by a test sample is given when at least one of the categories mortality, anti-feedant effect, and growth inhibition is higher than the untreated sample.

[7] = test system: Spodoptera littoralis; experiment: Example B8: Spodoptera littoralis (Egyptian cotton leaf worm), uptake by lettuce roots from agar, eggs; conditions: 144 h, test rate of 12.5 ppm, 6 days after infestation, compound absorbed by lettuce roots, read-out: control in at least one of the three categories (mortality, anti-feeding, or growth inhibition)
Excerpt: Example B8: Spodoptera Littoralis (Egyptian Cotton Leaf Worm)
Test compounds were applied by pipette from 10′000 ppm DMSO stock solutions into 24-well plates and mixed with agar. Lettuce seeds were placed onto the agar and the multi well plate was closed by another plate which contained also agar. After 7 days the compound was absorbed by the roots and the lettuce grew into the lid plate. The lettuce leaves were then cut off into the lid plate. Spodoptera eggs were pipetted through a plastic stencil onto a humid gel blotting paper and the lid plate was closed with it. The samples were assessed for mortality, anti-feedant effect and growth inhibition in comparison to untreated samples 6 days after infestation.
The following compounds gave an effect of at least 80% control in at least one of the three categories (mortality, anti-feeding, or growth inhibition) at a test rate of 12.5 ppm: […]

[8] = test system: Myzus persicae; experiment: Example B9: Myzus persicae (green peach aphid), sucrose solution, 96-well; conditions: 120 h, application rate of 50 ppm, 5 days after infestation, 96-well plates
Excerpt: Example B9: Myzus persicae (Green Peach Aphid)
Test compounds prepared from 10′000 ppm DMSO stock solutions were applied by a liquid handling robot into 96-well microtiter plates and mixed with a sucrose solution. Parafilm was stretched over the 96-well microtiter plate and a plastic stencil with 96 holes was placed onto the plate. Aphids were sieved into the wells directly onto the Parafilm. The infested plates were closed with a gel blotting card and a second plastic stencil and then turned upside down. The samples were assessed for mortality 5 days after infestation.

[9] = test system: Plutella xylostella; experiment: Example B10: Plutella xylostella (diamondback moth), artificial diet, 96-well, eggs; conditions: 216 h, application rate of 500 ppm, 9 days after infestation, 96-well plates
Method: Example B10: Plutella xylostella (Diamondback Moth)
96-well microtiter plates containing artificial diet were treated with aqueous test solutions, prepared from 10′000 ppm DMSO stock solutions, by a liquid handling robot. After drying, eggs (˜30 per well) were infested onto a netted lid which was suspended above the diet. The eggs hatch and L1 larvae move down to the diet. The samples were assessed for mortality 9 days after infestation.
The following compounds gave an effect of at least 80% average mortality at an application rate of 500 ppm: […]

[10] = test system: Myzus persicae; experiment: Example B5: Myzus persicae (green peach aphid), feeding/contact activity, sunflower leaf discs; conditions: foliar, 144 h, application rate of 200 ppm, 6 days after infestation
Method: Example B5: Myzus persicae (Green Peach Aphid): Feeding/Contact Activity
Sunflower leaf discs were placed onto agar in a 24-well microtiter plate and sprayed with aqueous test solutions prepared from 10′000 ppm DMSO stock solutions. After drying, the leaf discs were infested with an aphid population of mixed ages. The samples were assessed for mortality 6 days after infestation.

CC(c1ncnn1-c1ccc(C#N)cn1)N(C)C(=O)c1cc(C(F)(F)F)cc(C(F)(F)F)c1 (centres unmarked) [Compound F2, N-[1-[2-(5-cyano-2-pyridyl)-1,2,4-triazol-3-yl]ethyl]-N-methyl-3,5-bis(trifluoromethyl) benzamide]
≥ 80%: percent control (mortality or growth inhibition) at 200 ppm [1] | percent control (mortality or growth inhibition) at 200 ppm [2] | percent control (mortality, anti-feedant effect or growth inhibition) at 200 ppm [3] | percent control (mortality or growth inhibition) at 200 ppm [4] | mortality at 12 ppm [5] | percent control (mortality, anti-feedant effect or growth inhibition) at 200 ppm [6] | percent control (mortality, anti-feeding or growth inhibition) at 12.5 ppm [7] | mortality at 50 ppm [8] | mortality at 500 ppm [9]

CC(c1ncnn1-c1ncc(C#N)cn1)N(CC1CC1)C(=O)c1cc(C(F)(F)F)cc(C(F)(F)F)c1 (centres unmarked) [Compound F4, N-[1-[2-(5-cyanopyrimidin-2-yl)-1,2,4-triazol-3-yl]ethyl]-N-(cyclopropylmethyl)-3,5-bis(trifluoromethyl) benzamide]
≥ 80%: percent control (mortality or growth inhibition) at 200 ppm [1] | percent control (mortality or growth inhibition) at 200 ppm [2] | percent control (mortality, anti-feedant effect or growth inhibition) at 200 ppm [6]

Cc1nc(C(C)NC(=O)c2cc(OC(F)F)cc(C(F)(F)F)c2)n(-c2ccc(C#N)cn2)n1 (centres unmarked) [Compound F6, N-[1-[2-(5-cyano-2-pyridyl)-5-methyl-1,2,4-triazol-3-yl]ethyl]-3-(difluoromethoxy)-5-(trifluoromethyl) benzamide]
≥ 80%: percent control (mortality or growth inhibition) at 200 ppm [1] | percent control (mortality or growth inhibition) at 200 ppm [2] | percent control (mortality or growth inhibition) at 200 ppm [4] | mortality at 12 ppm [5] | percent control (mortality, anti-feedant effect or growth inhibition) at 200 ppm [6] | mortality at 50 ppm [8]

Cc1nc(C(C)NC(=O)c2cc(Br)cc(C(F)(F)F)c2)n(-c2ccc(C#N)cn2)n1 (centres unmarked) [Compound F8, 3-bromo-N-[1-[2-(5-cyano-2-pyridyl)-5-methyl-1,2,4-triazol-3-yl]ethyl]-5-(trifluoromethyl) benzamide]
≥ 80%: percent control (mortality or growth inhibition) at 200 ppm [1] | percent control (mortality or growth inhibition) at 200 ppm [2] | percent control (mortality or growth inhibition) at 200 ppm [4] | mortality at 12 ppm [5] | percent control (mortality, anti-feedant effect or growth inhibition) at 200 ppm [6] | mortality at 50 ppm [8]

Cc1nc(C(C)NC(=O)c2cc(C(F)F)cc(C(F)(F)F)c2)n(-c2ccc(C#N)cn2)n1 (centres unmarked) [Compound F9, N-[1-[2-(5-cyano-2-pyridyl)-5-methyl-1,2,4-triazol-3-yl]ethyl]-3-(difluoromethyl)-5-(trifluoromethyl) benzamide]
≥ 80%: percent control (mortality or growth inhibition) at 200 ppm [1] | percent control (mortality, anti-feedant effect or growth inhibition) at 200 ppm [3] | percent control (mortality or growth inhibition) at 200 ppm [4] | mortality at 12 ppm [5] | percent control (mortality, anti-feedant effect or growth inhibition) at 200 ppm [6] | mortality at 50 ppm [8]

CC(NC(=O)c1cc(SC(F)(F)F)cc(C(F)(F)F)c1)c1nc(C2CC2)nn1-c1ccc(C#N)cn1 (centres unmarked) [Compound F12, N-[1-[2-(5-cyano-2-pyridyl)-5-cyclopropyl-1,2,4-triazol-3-yl]ethyl]-3-(trifluoromethyl)-5-(trifluoromethylsulfanyl) benzamide]
≥ 80%: percent control (mortality or growth inhibition) at 200 ppm [1] | percent control (mortality or growth inhibition) at 200 ppm [2] | percent control (mortality, anti-feedant effect or growth inhibition) at 200 ppm [3] | percent control (mortality or growth inhibition) at 200 ppm [4] | percent control (mortality, anti-feedant effect or growth inhibition) at 200 ppm [6] | mortality at 500 ppm [9]

Cc1nc(C(C)N(C)C(=O)c2cc(C(F)(F)F)cc(C(F)(F)F)c2)n(-c2ccc(C#N)cn2)n1 (centres unmarked) [Compound F16, N-[1-[2-(5-cyano-2-pyridyl)-5-methyl-1,2,4-triazol-3-yl]ethyl]-N-methyl-3,5-bis(trifluoromethyl) benzamide]
≥ 80%: percent control (mortality or growth inhibition) at 200 ppm [1] | percent control (mortality or growth inhibition) at 200 ppm [2] | percent control (mortality, anti-feedant effect or growth inhibition) at 200 ppm [3] | percent control (mortality or growth inhibition) at 200 ppm [4] | mortality at 200 ppm [10] | mortality at 12 ppm [5] | percent control (mortality, anti-feedant effect or growth inhibition) at 200 ppm [6] | mortality at 50 ppm [8]
